Laboratory results taken from article PMC4890880 (ACS infectious diseases, 2016).
Like-named read-outs stand apart in the source and are kept apart here.

How the values were obtained:
[1] = system: Plasmodium berghei (Pb-Luc) exoerythrocytic-stage parasites; conditions: for IC50: read-out: PbLuc_IC50
HepG2-A16-CD81EGFP cells = conditions: for IC50: read-out: Tox_IC50, HepG2 cytotoxicity
[2] = first series of columns, fraction of control
[3] = sheet 2nd round, Pb-Luc exoerythrocytic stage, 10-point dose response, top concentration 10
[4] = second series of columns (replicate), fraction of control
[5] = sheet 2nd round, maximal inhibition in dose response
[6] = first series of dose-response columns, fraction of control
[7] = first series, fraction of control
[8] = sheet 2nd round, Broad compounds, dose response
[9] = second series of dose-response columns, fraction of control
[10] = second series, fraction of control
[11] = 2nd round, maximal inhibition in dose series

CC(C)NC(=O)NCC[C@@H]1CC[C@H](NS(=O)(=O)c2ccc(Oc3ccccc3)cc2)[C@@H](CO)O1 [BRD-K66184091-001-01-6]
normalized signal at concentration 0.000508053 [1, 2]: 0.909
normalized signal at concentration 0.00152416 [1, 2]: 1.056
normalized signal at concentration 0.00457247 [1, 2]: 1.03
normalized signal at concentration 0.0137174 [1, 2]: 0.8503
normalized signal at concentration 0.0411523 [1, 2]: 0.8577
normalized signal at concentration 0.123457 [1, 2]: 0.9757
normalized signal at concentration 0.37037 [1, 2]: 0.9475
normalized signal at concentration 1.11111 [1, 2]: 1.003
normalized signal at concentration 3.33333 [1, 2]: 1.282
normalized signal at concentration 10 [1, 2]: 1.243
IC50 [1, 3]: > 10 µM
normalized signal at concentration 0.000508053 [1, 4]: 0.9487
normalized signal at concentration 0.00152416 [1, 4]: 0.9281
normalized signal at concentration 0.00457247 [1, 4]: 0.7932
normalized signal at concentration 0.0137174 [1, 4]: 0.7902
normalized signal at concentration 0.0411523 [1, 4]: 0.9772
normalized signal at concentration 0.123457 [1, 4]: 0.9341
normalized signal at concentration 0.37037 [1, 4]: 0.8543
normalized signal at concentration 1.11111 [1, 4]: 0.8244
normalized signal at concentration 3.33333 [1, 4]: 0.9837
normalized signal at concentration 10 [1, 4]: 0.9187
PbLuc_max_inhibition (%) [1, 5]: 21%
IC50 (HepG2-A16-CD81EGFP cells; sheet 2nd round): > 10 µM
Tox_max_inhibition (%) (HepG2-A16-CD81EGFP cells; [5]): 7%

COc1cccc(S(=O)(=O)N2CCCCN3[C@H](CO)[C@H](c4ccc(C#CCC(C)C)cc4)[C@H]3C2)c1 [BRD-K69197522-001-01-4]
normalized signal at concentration 0.000508053 [1, 2]: 0.7703
normalized signal at concentration 0.00152416 [1, 2]: 0.9681
normalized signal at concentration 0.00457247 [1, 2]: 1.135
normalized signal at concentration 0.0137174 [1, 2]: 0.9046
normalized signal at concentration 0.0411523 [1, 2]: 0.9718
normalized signal at concentration 0.123457 [1, 2]: 0.7468
normalized signal at concentration 0.37037 [1, 2]: 1.034
normalized signal at concentration 1.11111 [1, 2]: 0.9136
normalized signal at concentration 3.33333 [1, 2]: 0.9728
normalized signal at concentration 10 [1, 2]: 0.6517
IC50 [1, 3]: > 10 µM
normalized signal at concentration 0.000508053 [1, 4]: 0.9237
normalized signal at concentration 0.00152416 [1, 4]: 0.8984
normalized signal at concentration 0.00457247 [1, 4]: 1.009
normalized signal at concentration 0.0137174 [1, 4]: 0.9117
normalized signal at concentration 0.0411523 [1, 4]: 0.9735
normalized signal at concentration 0.123457 [1, 4]: 1.068
normalized signal at concentration 0.37037 [1, 4]: 0.8113
normalized signal at concentration 1.11111 [1, 4]: 0.8704
normalized signal at concentration 3.33333 [1, 4]: 1.117
normalized signal at concentration 10 [1, 4]: 0.6736
PbLuc_max_inhibition (%) [1, 5]: 35%
IC50 (HepG2-A16-CD81EGFP cells; sheet 2nd round): > 10 µM
Tox_max_inhibition (%) (HepG2-A16-CD81EGFP cells; [5]): 6.65%

C[C@H](CO)N1C[C@H](C)[C@@H](CN(C)C(=O)Nc2ccc(C(F)(F)F)cc2)Oc2c(NC(=O)c3ccc(-c4nccs4)cc3)cccc2C1=O [BRD-K70940716-001-01-0]
normalized signal at concentration 10 [1, 6]: 1.176
normalized signal at concentration 0.000508053 [1, 7]: 0.7879
normalized signal at concentration 0.00152416 [1, 7]: 0.8471
normalized signal at concentration 0.00457247 [1, 7]: 0.871
normalized signal at concentration 0.0137174 [1, 7]: 0.8913
normalized signal at concentration 0.0411523 [1, 7]: 0.831
normalized signal at concentration 0.123457 [1, 7]: 0.9514
normalized signal at concentration 0.37037 [1, 7]: 0.8506
normalized signal at concentration 1.11111 [1, 7]: 0.9296
normalized signal at concentration 3.33333 [1, 7]: 1.136
IC50 [1, 8]: > 10 µM
normalized signal at concentration 10 [1, 9]: 1.096
normalized signal at concentration 0.000508053 [1, 10]: 1.058
normalized signal at concentration 0.00152416 [1, 10]: 0.9924
normalized signal at concentration 0.00457247 [1, 10]: 0.8277
normalized signal at concentration 0.0137174 [1, 10]: 1.075
normalized signal at concentration 0.0411523 [1, 10]: 1.139
normalized signal at concentration 0.123457 [1, 10]: 0.9792
normalized signal at concentration 0.37037 [1, 10]: 1.201
normalized signal at concentration 1.11111 [1, 10]: 1.005
normalized signal at concentration 3.33333 [1, 10]: 1.1649
PbLuc_max_inhibition (%) [1, 5]: 21%
IC50 (HepG2-A16-CD81EGFP cells; sheet 2nd round): > 10 µM
Tox_max_inhibition (%) (HepG2-A16-CD81EGFP cells; [5]): 7%

O=C(Cc1ccccn1)N1CC2(C1)[C@H](c1ccccc1)[C@H](CO)N2C(=O)c1ccncc1 [BRD-K71274172-001-01-0]
PbLuc_max_inhibition (%) [1, 11]: 33%
normalized signal at 0.000508053 (first series) ([1]; concentration 0.000508053, first replicate series, fraction of control): 0.9199
normalized signal at 0.000508053 (second series) ([1]; concentration 0.000508053, second replicate series, fraction of control): 0.7398
normalized signal at 0.00152416 (first series) ([1]; concentration 0.00152416, first replicate series, fraction of control): 1.024
normalized signal at 0.00152416 (second series) ([1]; concentration 0.00152416, second replicate series, fraction of control): 0.9453
normalized signal at 0.00457247 (first series) ([1]; concentration 0.00457247, first replicate series, fraction of control): 1.112
normalized signal at 0.00457247 (second series) ([1]; concentration 0.00457247, second replicate series, fraction of control): 0.9743
normalized signal at 0.0137174 (first series) ([1]; concentration 0.0137174, first replicate series, fraction of control): 0.9082
normalized signal at 0.0137174 (second series) ([1]; concentration 0.0137174, second replicate series, fraction of control): 0.6716
normalized signal at 0.0411523 (first series) ([1]; concentration 0.0411523, first replicate series, fraction of control): 1.078
normalized signal at 0.0411523 (second series) ([1]; concentration 0.0411523, second replicate series, fraction of control): 0.9171
normalized signal at 0.123457 (first series) ([1]; concentration 0.123457, first replicate series, fraction of control): 1.09
normalized signal at 0.123457 (second series) ([1]; concentration 0.123457, second replicate series, fraction of control): 1.008
normalized signal at 0.37037 (first series) ([1]; concentration 0.37037, first replicate series, fraction of control): 0.9519
normalized signal at 0.37037 (second series) ([1]; concentration 0.37037, second replicate series, fraction of control): 0.8993
normalized signal at 1.11111 (first series) ([1]; concentration 1.11111, first replicate series, fraction of control): 1.039
normalized signal at 1.11111 (second series) ([1]; concentration 1.11111, second replicate series, fraction of control): 0.6979
normalized signal at 3.33333 (first series) ([1]; concentration 3.33333, first replicate series, fraction of control): 0.9642
normalized signal at 3.33333 (second series) ([1]; concentration 3.33333, second replicate series, fraction of control): 0.9744
normalized signal at 10 (first series) ([1]; concentration 10, first replicate series, fraction of control): 1.127
normalized signal at 10 (second series) ([1]; concentration 10, second replicate series, fraction of control): 0.8663
IC50 ([1]; 2nd round, Broad DOS compounds, unit not printed (dose series head 10 to 0.000508053)): > 10 µM
Tox_max_inhibition (%) (HepG2-A16-CD81EGFP cells; [11]): 8%
IC50 (HepG2-A16-CD81EGFP cells; 2nd round, unit inferred): > 10 µM

Cc1noc(C)c1S(=O)(=O)N(C)C[C@H]1OCc2cn(nn2)CCCC(=O)N([C@@H](C)CO)C[C@@H]1C [BRD-K72210630-001-02-7]
normalized signal at concentration 0.000508053 [1, 2]: 0.823
normalized signal at concentration 0.00152416 [1, 2]: 0.7982
normalized signal at concentration 0.00457247 [1, 2]: 0.9501
normalized signal at concentration 0.0137174 [1, 2]: 0.8214
normalized signal at concentration 0.0411523 [1, 2]: 0.9732
normalized signal at concentration 0.123457 [1, 2]: 0.8751
normalized signal at concentration 0.37037 [1, 2]: 1.086
normalized signal at concentration 1.11111 [1, 2]: 0.9189
normalized signal at concentration 3.33333 [1, 2]: 0.9135
normalized signal at concentration 10 [1, 2]: 1.047
IC50 [1, 3]: > 10 µM
normalized signal at concentration 0.000508053 [1, 4]: 1.029
normalized signal at concentration 0.00152416 [1, 4]: 0.9027
normalized signal at concentration 0.00457247 [1, 4]: 0.8403
normalized signal at concentration 0.0137174 [1, 4]: 1.03
normalized signal at concentration 0.0411523 [1, 4]: 0.8593
normalized signal at concentration 0.123457 [1, 4]: 1
normalized signal at concentration 0.37037 [1, 4]: 0.7692
normalized signal at concentration 1.11111 [1, 4]: 0.8393
normalized signal at concentration 3.33333 [1, 4]: 0.8793
normalized signal at concentration 10 [1, 4]: 0.8029
PbLuc_max_inhibition (%) [1, 5]: 23%
IC50 (HepG2-A16-CD81EGFP cells; sheet 2nd round): > 10 µM
Tox_max_inhibition (%) (HepG2-A16-CD81EGFP cells; [5]): 5%

C[C@@H]1CN([C@H](C)CO)C(=O)c2cc(N(C)C)ccc2O[C@@H](C)CCCCO[C@H]1CN(C)S(=O)(=O)c1ccc(F)cc1 [BRD-K72687327-001-01-6]
normalized signal at concentration 10 [1, 6]: 0.73
normalized signal at concentration 0.000508053 [1, 7]: 1.09
normalized signal at concentration 0.00152416 [1, 7]: 1.10
normalized signal at concentration 0.00457247 [1, 7]: 0.91
normalized signal at concentration 0.0137174 [1, 7]: 1.11
normalized signal at concentration 0.0411523 [1, 7]: 0.89
normalized signal at concentration 0.123457 [1, 7]: 0.84
normalized signal at concentration 0.37037 [1, 7]: 0.92
normalized signal at concentration 1.11111 [1, 7]: 0.97
normalized signal at concentration 3.33333 [1, 7]: 1.01
IC50 [1, 8]: > 10 µM
normalized signal at concentration 10 [1, 9]: 0.75
normalized signal at concentration 0.000508053 [1, 10]: 0.96
normalized signal at concentration 0.00152416 [1, 10]: 1.08
normalized signal at concentration 0.00457247 [1, 10]: 0.94
normalized signal at concentration 0.0137174 [1, 10]: 1.05
normalized signal at concentration 0.0411523 [1, 10]: 1.15
normalized signal at concentration 0.123457 [1, 10]: 0.88
normalized signal at concentration 0.37037 [1, 10]: 1.15
normalized signal at concentration 1.11111 [1, 10]: 1.02
normalized signal at concentration 3.33333 [1, 10]: 1.11
PbLuc_max_inhibition (%) [1, 5]: 27%
IC50 (HepG2-A16-CD81EGFP cells; sheet 2nd round): > 10 µM
Tox_max_inhibition (%) (HepG2-A16-CD81EGFP cells; [5]): 11%
